From patent US11529361B2, “Halogenated salicylanilides for treating Clostridium infections” (UNION therapeutics A/S, priority 2015, dated 2022)
≈ marks a conversion by molar mass, not a printed value. Where two headings read alike, the source gives them in different places.

Legend:
[1] = test system: 24 clinical isolate strains of C. difficile; experiment: Additional MIC determinations, antibacterial activity by OD600 (Example 3); assay type: cell-based, Clostridium difficile
[2] = test system: C. difficile clinical isolates; experiment: MIC determination by microbroth dilution per CLSI guideline (Example 1); assay type: cell-based, Clostridium difficile; details: Clostridioides difficile
rats = details: p.o.; cited from earlier work
[3] = test system: Clostridium difficile infection (CDAD); details: phase III clinical trials, versus vancomycin; cited from earlier work
C. difficile = details: published data (footnote a); cited from earlier work
[4] = test system: Clostridium difficile 7-6011209; assay type: cell-based
[5] = Table 3, strain 7-6011209, read-out: C. difficile Strain 7-6011209 MIC
[6] = Table 3, strain 12055, read-out: C. difficile Strain 12055 MIC

| SMILES | MIC ([1]; strain 7-5085357 (ST028)) [µg/mL] | MIC ([1]; strain 7-6011209 (ST002)) [µg/mL] | MIC ([1]; strain 7-6778909 (ST016)) [µg/mL] | MIC ([1]; strain 7-6854508 (ST013)) [µg/mL] | MIC ([1]; strain 7-6870430 (ST001)) [µg/mL] | MIC ([1]; strain 7-7104022 (ST103)) [µg/mL] | MIC ([1]; strain 7-7116411 (ST005)) [µg/mL] | MIC ([1]; strain 7-7124449 (ST009)) [µg/mL] | MIC ([1]; strain 7-7149204 (ST006)) [µg/mL] | MIC ([1]; strain 7-7150288 (ST003)) [µg/mL] | MIC ([1]; strain 7-7150318 (ST059)) [µg/mL] | MIC ([1]; strain 7-7150628 (ST034)) [µg/mL] | MIC ([1]; strain 7-7150997 (ST049)) [µg/mL] | MIC ([1]; strain 7-7154992 (ST139)) [µg/mL] | MIC ([1]; strain 7-7200552 (ST017)) [µg/mL] | MIC ([1]; strain 12055) [µg/mL] | MIC ([1]; strain 12060) [µg/mL] | MIC ([1]; strain 12061) [µg/mL] | MIC ([1]; strain 12062) [µg/mL] | MIC ([1]; strain 12063) [µg/mL] | other results |
| --- | --- | --- | --- | --- | --- | --- | --- | --- | --- | --- | --- | --- | --- | --- | --- | --- | --- | --- | --- | --- | --- |
| Cc1cc(C(C#N)c2ccc(Cl)cc2)c(Cl)cc1NC(=O)c1cc(I)cc(I)c1O (stereo not drawn) [Closantel] | 0.016 (≈ 0.0241 µM) | 0.016 (≈ 0.0241 µM) | 0.031 (≈ 0.0468 µM) | 0.25 (≈ 0.377 µM) | 0.031 (≈ 0.0468 µM) | 0.25 (≈ 0.377 µM) | 0.25 (≈ 0.377 µM) | 0.25 (≈ 0.377 µM) | 0.31 (≈ 0.468 µM) | 0.031 (≈ 0.0468 µM) | 0.63 (≈ 0.95 µM) | 0.063 (≈ 0.095 µM) | 0.016 (≈ 0.0241 µM) | 0.063 (≈ 0.095 µM) | 0.5 (≈ 0.754 µM) | 0.063 (≈ 0.095 µM) | 0.125 (≈ 0.189 µM) | 0.063 (≈ 0.095 µM) | 0.063 (≈ 0.095 µM) | 0.031 (≈ 0.0468 µM) | MIC ([1]; strain 12064): 0.031 µg/mL (≈ 0.0468 µM); MIC ([1]; strain 12065): 0.063 µg/mL (≈ 0.095 µM); MIC ([1]; strain 12066): 0.5 µg/mL (≈ 0.754 µM); MIC [2, 5]: 0.125 µg/mL (≈ 0.189 µM); MIC [2, 6]: 0.125 µg/mL (≈ 0.189 µM); LD50 (rats): 262 to 342 mg/kg |
| CCc1c(Cl)c(O)c(Cl)c(O)c1C(=O)O[C@H]1[C@H](O)[C@H](OC)[C@H](OC/C2=C\C=C\C[C@H](O)/C(C)=C/[C@H](CC)[C@@H](O[C@@H]3OC(C)(C)[C@@H](OC(=O)C(C)C)[C@H](O)[C@@H]3O)/C(C)=C/C(C)=C/C[C@@H]([C@@H](C)O)OC2=O)O[C@@H]1C [Fidaxomycin] | < 0.008 | < 0.008 | < 0.008 | < 0.008 | 0.016 (≈ 0.0151 µM) | < 0.008 | 2 (≈ 1.89 µM) | < 0.008 | < 0.008 | < 0.008 | < 0.008 | < 0.008 | < 0.008 | < 0.008 | < 0.008 | < 0.008 | < 0.008 | < 0.008 | < 0.008 | < 0.008 | clinical cure of CDAD [3]: non-inferior to vancomycin; preventing recurrence of CDAD [3]: superior to vancomycin; MIC ([1]; strain 7-7363761 (ST008)): < 0.008 µg/mL; MIC ([1]; strain 12064): < 0.008 µg/mL; MIC ([1]; strain 12065): < 0.008 µg/mL; MIC ([1]; strain 12066): < 0.008 µg/mL; Highest MIC observed (C. difficile): 1 ^ μg/mL; MIC90 (C. difficile): 0.5^a μg/mL; formation of heat-resistant spores over time [4]: suppressed formation of spores for the first 48 hours of the study |
| O=C(Nc1cc(Cl)cc(Cl)c1O)c1c(O)c(Cl)cc(Cl)c1Cl [Oxyclozanide] | 0.016 (≈ 0.0399 µM) | < 0.008 | < 0.008 | < 0.008 | < 0.008 | < 0.008 | 0.125 (≈ 0.311 µM) | 0.031 (≈ 0.0772 µM) | < 0.008 | < 0.008 | 0.016 (≈ 0.0399 µM) | 0.31 (≈ 0.772 µM) | < 0.008 | < 0.008 | 0.25 (≈ 0.623 µM) | 0.016 (≈ 0.0399 µM) | 0.031 (≈ 0.0772 µM) | 0.016 (≈ 0.0399 µM) | < 0.008 | 0.016 (≈ 0.0399 µM) | MIC ([1]; strain 12064): < 0.008 µg/mL; MIC ([1]; strain 12065): 0.031 µg/mL (≈ 0.0772 µM); MIC ([1]; strain 12066): 0.125 µg/mL (≈ 0.311 µM); MIC [2, 5]: 0.25 µg/mL (≈ 0.623 µM); MIC [2, 6]: 0.25 µg/mL (≈ 0.623 µM); LD50 (rats): 980 to 3519 mg/kg |
